According to patent US6303568A, “Therapeutic antimicrobial polypeptides, their use and methods for preparation” (Helix Biomedix, Inc., priority 1996, dated 2001):
Where two headings read alike, the source gives them in different places. Ends that are not written are not given here.

What was measured:
Brucella abortus [1] = format: in vivo; settings: 0.176 milligrams/day intramuscularly for 4 days from 12th day post infection; sacrificed 16th day post infection
Brucella abortus [2] = format: cell-based
E. coli E/2/64 = test: In vitro exposure and plate count, E. coli (Example 3); format: cell-based
Procedure: A known number of viable microorganisms were exposed to a known concentration of the antimicrobial agent for a given time period. Following exposure, the undiluted or diluted microorganisms were plated on solid growth media, e.g., agar plates. The plates were incubated and numbers of organisms determined by making plate counts. Comparisons are then made with the non-treated bacteria for evidence of inhibition, mortality, or both. The following Examples give detailed experimental procedures and results for several microorganisms and antimicrobial agents. […] The E. coli is collected in late log phase growth at which the majority of cells are in growth phase at 18-24 hours. […] The mixtures were incubated at room temperature for 1 hour, and then at 37° C. for 30 minutes. The mixtures were diluted to 10^-1 or 10^-3 with serial dilutions at 7 drops per dilution (10 microliters per drop), plated on agar growth media, which is a tryptose agar. The plates were incubated for 3 days at 37° C. Plate counts were then made and the results given below.

[3] = BALB/C mice
Procedure: The safety of antimicrobial agents according to the present invention was tested according to standard procedures in animal studies.
Six BALB/C mice, 4 to 5 weeks of age, maintained on commercial rodent ration fed ad libidum and in general good health were each inoculated with 1.76 milligrams/day of cecropin C-37 in balanced salt solution intramuscularly for 4 consecutive days. No other change was made in diet or conditions. […] At the end of the fourth day, three of the […] were humanely destroyed and examined. After 30 days, 3 of the 6 were given an additional 1.76 milligrams each.
The remaining mice were all killed 7 days after the last inoculation.
Following the procedure above in Part A, three BALB/C mice were given 110 milligrams/kilogram of body weight of cecropin C-37 injected intramuscularly in balanced salt solution for 6 days. White cell counts and differentials were performed on a daily basis. Ten days after the last inoculation, the mice were again injected intramuscularly with 110 milligrams/kilogram of body weight with Cecropin C-37. […] All three mice were killed 7 days after the final inoculation and tissues were examined.

## CN(C)[C@@H]1C(O)=C(C(N)=O)C(=O)[C@@]2(O)C(O)=C3C(=O)c4c(O)cccc4[C@@](C)(O)[C@H]3C[C@@H]12 [Tetracycline, tetracycline]
Brucella abortus [1]
  Concentration of Brucella abortus in BALB/c Mouse Spleen Tissue After 4 Days Treatment: 4.4 × 10^3 per gram of spleen

## KWKVFKKIEKMGRNIRNGIVKAGPAIAVLGEAKAL-NH2 [Cecropin B]
Brucella abortus [2]
  Effect on Brucella abortus (growth): no growth
E. coli E/2/64; 5 × 10^-6 molar
  Effect on E. coli (growth): no growth
E. coli E/2/64; lower concentrations of 1 nanomolar and 1 micromolar
  Effect on E. coli (growth): positive E. coli growth

## lysozyme: lysozyme, tested by itself and combined with cecropins
E. coli E/2/64; lysozyme itself at 10 micrograms, 1 milligram, and 10 milligrams per milliliter, 10^-1 and 10^-3 dilutions
  Effect on E. coli (growth): positive growth

## MPKWKVFKKIEKVGRNIRNGIVKAGPAIAVLGEAKAL-NH2 [Cecropin C-37]
[3]; 1.76 milligrams/day intramuscularly
  IgG antibody to the antimicrobial agent: None of these mice produced detectable levels
[3]; 1.76 milligrams/day intramuscularly for 4 consecutive days, observed twice daily
  adverse reactions: no adverse reactions
[3]; 1.76 milligrams/day intramuscularly, killed 7 days after last inoculation
  gross pathological changes in organs and at injection sites: no gross pathological changes
[3]; 110 milligrams/kilogram intramuscularly
  Cecropin C-37 antibodies: No Cecropin C-37 antibodies were detected
[3]; 110 milligrams/kilogram intramuscularly for 6 days, again ten days after
  adverse effects: no adverse effects
[3]; 110 milligrams/kilogram intramuscularly, killed 7 days after final inoculation
  tissue examination: enlarged spleens but were otherwise unremarkable
[3]; additional 1.76 milligrams each after 30 days
  adverse reactions: No adverse reactions
